Measurements published in patent US10828305B2 (SHANGHAI PHARMACEUTICALS HOLDING CO., LTD., priority 2016, dated 2020).

Tests used:
[1] = test system: BT-474; assay: Proliferation inhibition assay in vitro, BT-474 (CellTiter-Glo); type: cell-based; settings: Homo sapiens, 72 hours, read-out: IC50(nM) cell BT-474
Method in brief: (§1)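 Cells were seeded at 8.8×10^4 cells/mL for BT-474 or 6.6×10^4 cells/mL for N87 and grown overnight. Compound was added at 9 concentrations in duplicate for 72 h at 37 °C, 5% CO2. Viability was measured by CellTiter-Glo.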

[2] = test system: N87; assay: Proliferation inhibition assay in vitro, N87 (CellTiter-Glo); type: cell-based; settings: Homo sapiens; 72 hours; read-out: IC50(nM) cell N87
Method in brief: as §1

[3] = target: EGFR kinase (Homo sapiens, UniProt P00533); assay: Enzymatic experiment on EGFR (HTRF kinEASE-TK); type: biochemical; settings: ATP 1.65 μM; read-out: Kinase IC50 (nM) in vitro EGFR
Method in brief: (§2)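 HTRF kinEASE-TK with biotinylated TK substrate in HEPES pH 7.0 buffer containing MnCl2, MgCl2 and DTT; ErbB2 at 0.06 ng/μl with 4 μM ATP, EGFR at 0.06 units/μl with 1.65 μM ATP, 30 min at room temperature after 5 min enzyme/substrate–compound preincubation. Ten-point 3-fold dilutions; Eu antibody/SA-XL665 detection, 665/620 ratio.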

[4] = target: ErbB2 kinase (Homo sapiens, UniProt P04626); assay: Enzymatic experiment on ErbB2 (HTRF kinEASE-TK); type: biochemical; settings: ATP 4 μM; read-out: Kinase IC50 (nM) in vitro ErbB2
Method in brief: as §2

Chain of ErbB2 kinase (P04626 23-1255): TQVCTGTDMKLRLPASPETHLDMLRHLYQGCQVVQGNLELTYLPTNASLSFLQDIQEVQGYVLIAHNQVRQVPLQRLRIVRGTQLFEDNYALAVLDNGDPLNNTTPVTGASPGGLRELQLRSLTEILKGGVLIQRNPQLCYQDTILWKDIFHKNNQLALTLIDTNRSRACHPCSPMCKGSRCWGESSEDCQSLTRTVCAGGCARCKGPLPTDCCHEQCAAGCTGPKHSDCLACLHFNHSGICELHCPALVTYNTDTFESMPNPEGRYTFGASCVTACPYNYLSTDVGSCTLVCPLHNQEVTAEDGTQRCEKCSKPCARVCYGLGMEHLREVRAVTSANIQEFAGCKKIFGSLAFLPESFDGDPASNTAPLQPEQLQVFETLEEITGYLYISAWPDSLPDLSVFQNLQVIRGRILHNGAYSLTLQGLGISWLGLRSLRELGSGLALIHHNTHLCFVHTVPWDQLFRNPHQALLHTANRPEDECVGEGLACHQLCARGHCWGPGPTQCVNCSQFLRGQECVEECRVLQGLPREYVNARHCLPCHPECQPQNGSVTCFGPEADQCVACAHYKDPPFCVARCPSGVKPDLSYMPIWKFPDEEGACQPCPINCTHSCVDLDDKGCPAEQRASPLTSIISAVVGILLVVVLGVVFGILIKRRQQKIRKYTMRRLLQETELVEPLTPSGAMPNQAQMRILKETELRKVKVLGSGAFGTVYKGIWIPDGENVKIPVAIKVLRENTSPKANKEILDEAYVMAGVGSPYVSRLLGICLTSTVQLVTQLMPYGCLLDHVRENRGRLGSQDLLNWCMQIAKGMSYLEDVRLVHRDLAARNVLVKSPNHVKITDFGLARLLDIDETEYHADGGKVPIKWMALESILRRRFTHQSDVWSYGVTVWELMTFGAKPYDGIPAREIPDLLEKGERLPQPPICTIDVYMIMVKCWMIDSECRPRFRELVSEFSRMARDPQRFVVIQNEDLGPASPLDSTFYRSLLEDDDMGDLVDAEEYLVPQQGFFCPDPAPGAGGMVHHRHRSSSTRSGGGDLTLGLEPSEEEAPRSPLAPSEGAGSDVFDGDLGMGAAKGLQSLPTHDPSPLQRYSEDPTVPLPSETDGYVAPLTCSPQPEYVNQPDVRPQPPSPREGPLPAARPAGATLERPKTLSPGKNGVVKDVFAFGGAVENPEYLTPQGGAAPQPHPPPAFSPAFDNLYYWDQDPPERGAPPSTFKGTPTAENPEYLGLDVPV
Chain of EGFR kinase (P00533 25-1210): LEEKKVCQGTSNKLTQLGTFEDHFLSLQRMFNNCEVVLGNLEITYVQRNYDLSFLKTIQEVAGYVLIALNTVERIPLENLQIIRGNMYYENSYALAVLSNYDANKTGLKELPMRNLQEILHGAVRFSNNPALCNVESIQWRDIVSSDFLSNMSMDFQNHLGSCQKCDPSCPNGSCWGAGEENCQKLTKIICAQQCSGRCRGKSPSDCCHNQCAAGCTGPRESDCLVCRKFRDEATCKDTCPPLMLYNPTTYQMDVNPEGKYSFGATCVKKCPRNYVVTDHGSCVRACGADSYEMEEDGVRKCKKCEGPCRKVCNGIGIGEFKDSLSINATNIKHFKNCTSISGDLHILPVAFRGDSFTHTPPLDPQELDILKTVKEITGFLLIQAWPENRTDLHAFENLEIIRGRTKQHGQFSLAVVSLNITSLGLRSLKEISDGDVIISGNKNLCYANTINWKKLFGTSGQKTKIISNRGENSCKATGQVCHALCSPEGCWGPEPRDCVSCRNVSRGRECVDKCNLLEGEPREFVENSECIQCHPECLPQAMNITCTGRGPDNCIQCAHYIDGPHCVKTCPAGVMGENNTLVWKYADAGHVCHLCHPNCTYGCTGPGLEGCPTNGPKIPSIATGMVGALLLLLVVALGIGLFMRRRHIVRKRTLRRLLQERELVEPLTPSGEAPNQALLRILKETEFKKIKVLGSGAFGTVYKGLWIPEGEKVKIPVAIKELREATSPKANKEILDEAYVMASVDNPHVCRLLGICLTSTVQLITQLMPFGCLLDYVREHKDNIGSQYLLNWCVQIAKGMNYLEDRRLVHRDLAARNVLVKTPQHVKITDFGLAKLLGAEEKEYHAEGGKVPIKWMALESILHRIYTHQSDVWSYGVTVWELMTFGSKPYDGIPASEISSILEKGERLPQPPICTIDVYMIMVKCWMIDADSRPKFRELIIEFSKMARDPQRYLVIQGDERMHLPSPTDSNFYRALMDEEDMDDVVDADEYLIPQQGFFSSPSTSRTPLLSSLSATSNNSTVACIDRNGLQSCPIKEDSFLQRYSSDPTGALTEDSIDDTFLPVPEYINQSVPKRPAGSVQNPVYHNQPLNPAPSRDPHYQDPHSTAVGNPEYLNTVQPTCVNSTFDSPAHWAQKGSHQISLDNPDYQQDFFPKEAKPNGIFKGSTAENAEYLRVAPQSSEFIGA

Which results are given for `Cc1cc(Nc2ncnc3ccc(NC(=O)CCl)cc23)ccc1Oc1cc2nncn2cn1` [Embodiment 82, N-(4-((4-([1,2,4]triazolo[4,3-c]pyrimidin-7-yloxy)-3-methylphenyl)amino)quinazolin-6-yl)-2-chloroacetamide]?
IC50 [1]: 7.1 nM; IC50 [2]: 5 nM; IC50 [3]: 2.2 nM; IC50 [4]: 1.1 nM

What does the source list for `Cc1cc(Nc2ncnc3ccc(-n4cccc4)cc23)ccc1Oc1cc2nncn2cn1` [Embodiment 83, N-(4-([1,2,4]triazolo[4,3-c]pyrimidin-7-yloxy)-3-methylphenyl)-6-(1H-pyrrol-1-yl)-quinazolin-4-amine]?
IC50 [1]: 72.7 nM; IC50 [2]: 104 nM; IC50 [3]: 36.4 nM; IC50 [4]: 2.3 nM

What does the source list for `C=C(C)C(=O)Nc1ccc2ncnc(Nc3ccc(Oc4cc5nncn5cn4)c(C)c3)c2c1` [Embodiment 84, N-(4-((4-([1,2,4]triazolo[4,3-c]pyrimidin-7-yloxy)-3-methylphenyl)amino)quinazolin-6-yl)-methacrylamide]?
IC50 [1]: 21.8 nM; IC50 [2]: 31.1 nM; IC50 [3]: 89.4 nM; IC50 [4]: 3 nM

Which IC50 [1] does the source give for `Cc1cc(Nc2ncnc3ccc(-n4ccc(CNCCS(C)(=O)=O)c4)cc23)ccc1Oc1cc2nncn2cn1` [Embodiment 86, N-(4-([1,2,4]triazolo[4,3-c]pyrimidin-7-yloxy)-3-methylphenyl)-6-(3-(((2-(methylsulfonyl)ethyl)amino)methyl)-1H-pyrrol-1-yl)quinazolin-4-amine] here?
Its IC50 is 33.8 nM.

And the IC50 [2]?
The IC50 was 160 nM.

And the IC50 [3]?
Its IC50 is 7.7 nM.

And the IC50 [4]?
Its IC50 is 3.1 nM.

How did the IC50 [1] turn out when `Cc1cc(Nc2ncnc3ccc(NC4=NC5(CCCC5)CO4)cc23)ccc1Oc1cc2nncn2cn1` [Embodiment 87] was run?
Its IC50 is 15.3 nM.

What about the IC50 [2] of the same compound?
The IC50 was 25.3 nM.

What about the IC50 [3] of the same compound?
The IC50 was 6.5 nM.

What about the IC50 [4] of the same compound?
The IC50 was 1.9 nM.

For `C=CC(=O)N1CCC(Oc2cc3c(Nc4ccc(Oc5cc6nncn6cn5)c(F)c4)ncnc3cc2OC)CC1` [Embodiment 88, 1-(4-((4-((4-([1,2,4]triazolo[4,3-c]pyrimidin-7-yloxy)-3-fluorophenyl)amino)-7-methoxyquinazolin-6-yl)oxy)piperidin-1-yl)prop-2-en-1-one], which IC50 [1] is on record?
The IC50 was 6.3 nM.

What about the IC50 [2] of the same compound?
The IC50 was 5.2 nM.

What about the IC50 [3] of the same compound?
The IC50 was 1.9 nM.

And the IC50 [4]?
The IC50 was 1.13 nM.

For `Cc1cc(Nc2ncnc3ccc(NC4=NCC(C)(C)O4)cc23)ccc1Oc1cc2nncn2cn1` [Embodiment 90, N^4-(4-([1,2,4]triazolo[4,3-c]pyrimidin-7-yloxy)-3-methylphenyl)-N^6-(5,5-dimethyl-4,5-dihydrooxazol-2-yl)quinazolin-4,6-diamine], which IC50 [1] is on record?
The IC50 was 185 nM.

What about the IC50 [2] of the same compound?
The IC50 was 271 nM.

What about the IC50 [3] of the same compound?
Its IC50 is 494 nM.

And the IC50 [4]?
Its IC50 is 11.1 nM.

With `Cc1cc(Nc2ncnc3ccc(NC4=N[C@@H](C(C)C)CO4)cc23)ccc1Oc1cc2nncn2cn1` [Embodiment 91, (S)—N^4-(4-([1,2,4]triazolo[4,3-c]pyrimidin-7-yloxy)-3-methylphenyl)-N^6-(4-isopropyl-4,5-dihydrooxazol-2-yl)quinazolin-4,6-diamine] as the compound, how does the IC50 [1] read?
Its IC50 is 38.8 nM.

And the IC50 [2]?
The IC50 was 76.8 nM.

And the IC50 [3]?
The IC50 was 26.9 nM.

What about the IC50 [4] of the same compound?
Its IC50 is 2.76 nM.

`C=CC(=O)N1CCC(Oc2cc3c(Nc4ccc(Oc5cc6nncn6cn5)c(Cl)c4)ncnc3cc2OC)CC1` [Embodiment 92, 1-(4-((4-((4-([1,2,4]triazolo[4,3-c]pyrimidin-7-yloxy)-3-chlorophenyl)amino)-7-methoxyquinazolin-6-yl)oxy)piperidin-1-yl)prop-2-en-1-one] was tested. Which IC50 [1] did it give?
Its IC50 is 2.2 nM.

What about the IC50 [2] of the same compound?
The IC50 was 3.4 nM.

And the IC50 [3]?
Its IC50 is 0.7 nM.

And the IC50 [4]?
The IC50 was 0.44 nM.

`Cc1cc(Nc2ncnc3ccc(NC(=O)/C=C/[C@H]4CCCN4C)cc23)ccc1Oc1cc2nncn2cn1` [Embodiment 94, (R,E)-N-(4-((4-([1,2,4]triazolo[4,3-c]pyrimidin-7-yloxy)-3-methylphenyl)amino)quinazolin-6-yl)-3-(1-methylpyrrolidin-2-yl)acrylamide] was tested. Which IC50 [1] did it give?
The IC50 was 4.8 nM.

What about the IC50 [2] of the same compound?
Its IC50 is 4.7 nM.

What about the IC50 [3] of the same compound?
The IC50 was 3.16 nM.

And the IC50 [4]?
Its IC50 is 2.99 nM.

Which results are given for `Cc1cc(Nc2ncnc3ccc(NC(=O)/C=C/[C@@H]4CCCN4)cc23)ccc1Oc1cc2nncn2cn1` [Embodiment 96, (S,E)-N-(4-((4-([1,2,4]triazolo[4,3-c]pyrimidin-7-yloxy)-3-methylphenyl)amino)quinazolin-6-yl)-3-(pyrrolidin-2-yl)acrylamide]?
IC50 [1]: 55.9 nM; IC50 [2]: 93.5 nM; IC50 [3]: 3.79 nM; IC50 [4]: 3.43 nM

For `Cc1cc(Nc2ncnc3ccc(NC(=O)/C=C/[C@@H]4CCCN4C)cc23)ccc1Oc1cc2nncn2cn1` [Embodiment 97, (S,E)-N-(4-((4-([1,2,4]triazolo[4,3-c]pyrimidin-7-yloxy)-3-methylphenyl)amino)quinazolin-6-yl)-3-(1-methylpyrrolidin-2-yl)acrylamide], which IC50 [1] is on record?
Its IC50 is 6.4 nM.

And the IC50 [2]?
Its IC50 is 10 nM.

What about the IC50 [3] of the same compound?
Its IC50 is 11.4 nM.

What about the IC50 [4] of the same compound?
The IC50 was 4.84 nM.

`CN1CCC[C@@H]1/C=C/C(=O)Nc1ccc2ncnc(Nc3ccc(Oc4cc5nncn5cn4)c(Cl)c3)c2c1` [Embodiment 98, (R,E)-N-(4-((4-([1,2,4]triazolo[4,3-c]pyrimidin-7-yloxy)-3-chlorophenyl)amino)quinazolin-6-yl)-3-(1-methylpyrrolidin-2-yl)acrylamide] was tested. Which IC50 [1] did it give?
Its IC50 is 3 nM.

What about the IC50 [2] of the same compound?
Its IC50 is 2.5 nM.

And the IC50 [3]?
The IC50 was 1.6 nM.

And the IC50 [4]?
Its IC50 is 1.78 nM.

For `Cc1cc(Nc2ncnc3ccc(-c4ccc(CN(C)CCS(C)(=O)=O)o4)cc23)ccc1Oc1cc2nncn2cn1` [Embodiment 105], which IC50 [1] is on record?
Its IC50 is 22.9 nM.

What about the IC50 [2] of the same compound?
Its IC50 is 17.3 nM.

And the IC50 [3]?
Its IC50 is 26 nM.

And the IC50 [4]?
Its IC50 is 1.2 nM.

What does the source list for `Cc1cc(Nc2ncnc3ccc(NC(=S)NC(C)(C)CO)cc23)ccc1Oc1cc2nncn2cn1` [Embodiment 106, 1-(4-((4-([1,2,4]triazolo[4,3-c]pyrimidin-7-yloxy)-3-methylphenyl)amino)quinazolin-6-yl)-3-(1-hydroxy-2-methylpropan-2-yl)thiourea]?
IC50 [1]: 264 nM; IC50 [2]: 933 nM; IC50 [3]: 445 nM; IC50 [4]: 21.5 nM

How did the IC50 [1] turn out when `Cc1cc(Nc2ncnc3ccc(-c4cccc(NCCS(C)(=O)=O)c4)cc23)ccc1Oc1cc2nncn2cn1` [Embodiment 115] was run?
The IC50 was 58.6 nM.

And the IC50 [2]?
The IC50 was 84 nM.

What about the IC50 [3] of the same compound?
Its IC50 is 75.9 nM.

What about the IC50 [4] of the same compound?
Its IC50 is 5.91 nM.

`Cc1cc(Nc2ncnc3ccc(-c4cccc(N5CCS(=O)(=O)CC5)c4)cc23)ccc1Oc1cc2nncn2cn1` [Embodiment 116, 4-(3-(4-((4-([1,2,4]triazolo[4,3-c]pyrimidin-7-yloxy)-3-methylphenyl)amino)quinazolin-6-yl)phenyl)thiomorpholin-1,1-dioxide] was tested. Which IC50 [1] did it give?
Its IC50 is 12.6 nM.

What about the IC50 [2] of the same compound?
The IC50 was 18.3 nM.

What about the IC50 [3] of the same compound?
The IC50 was 11.7 nM.

And the IC50 [4]?
Its IC50 is 1.3 nM.

For `C=CC(=O)N1CC=C(c2ccc3ncnc(Nc4ccc(Oc5cc6nncn6cn5)c(C)c4)c3c2)CC1` [Embodiment 117, 1-(4-(4-((4-([1,2,4]triazolo[4,3-c]pyrimidin-7-yloxy)-3-methylphenyl)amino)quinazolin-6-yl)-5,6-dihydropyridin-1(2H)-yl)prop-2-en-1-one], which IC50 [1] is on record?
The IC50 was 3.1 nM.

And the IC50 [2]?
Its IC50 is 2.1 nM.

And the IC50 [3]?
Its IC50 is 100 nM.

And the IC50 [4]?
Its IC50 is 3.6 nM.

What does the source list for `Cc1cc(Nc2ncnc3ccc(-c4ccc(N)nn4)cc23)ccc1Oc1cc2nncn2cn1` [Embodiment 118, N-(4-([1,2,4]triazolo[4,3-c]pyrimidin-7-yloxy)-3-methylphenyl)-6-(6-aminopyridazin-3-yl)quinazolin-4-amine]?
IC50 [1]: 73.4 nM; IC50 [2]: 389 nM; IC50 [3]: 28.4 nM; IC50 [4]: 8.59 nM

Which results are given for `C=CC(=O)N1CCC=C(c2ccc3ncnc(Nc4ccc(Oc5cc6nncn6cn5)c(C)c4)c3c2)C1` [Embodiment 120, 1-(5-(4-((4-([1,2,4]triazolo[4,3-c]pyrimidin-7-yloxy)-3-methylphenyl)amino)quinazolin-6-yl)-3,6-dihydropyridin-1(2H)-yl)prop-2-en-1-one]?
IC50 [1]: 5.85 nM; IC50 [2]: 2.68 nM; IC50 [3]: 7.41 nM; IC50 [4]: 1.31 nM

How did the IC50 [1] turn out when `Cc1cc(Nc2ncnc3ccc(/C=C/CNC(=O)C4CC4)cc23)ccc1Oc1cc2nncn2cn1` [Embodiment 122, (E)-N-(3-(4-((4-([1,2,4]triazolo[4,3-c]pyrimidin-7-yloxy)-3-methylphenyl)amino)quinazolin-6-yl)allyl)cyclopropylcarboxamide] was run?
Its IC50 is 37 nM.

And the IC50 [2]?
The IC50 was 92 nM.

And the IC50 [3]?
The IC50 was 87.2 nM.

What about the IC50 [4] of the same compound?
The IC50 was 2.7 nM.

For `Cc1cc(Nc2ncnc3ccc(-c4ccc(CNCCS(C)(=O)=O)n4C)cc23)ccc1Oc1cc2nncn2cn1` [Embodiment 123, N-(4-([1,2,4]triazolo[4,3-c]pyrimidin-7-yloxy)-3-methylphenyl)-6-(1-methyl-5-(((2-(methylsulfonyl)ethyl)amino)methyl)-1H-pyrrol-2-yl)quinazolin-4-amine], which IC50 [1] is on record?
Its IC50 is 219 nM.

What about the IC50 [2] of the same compound?
The IC50 was 429 nM.

What about the IC50 [3] of the same compound?
Its IC50 is 32.8 nM.

What about the IC50 [4] of the same compound?
Its IC50 is 4.4 nM.

Which IC50 [1] does the source give for `C=CC(=O)Nc1ccc2ncnc(Nc3ccc(Oc4cc5nncn5cn4)c(C)c3)c2c1` [Embodiment 124, N-(4-((4-([1,2,4]triazolo[4,3-c]pyrimidin-7-yloxy)-3-methylphenyl)amino)quinazolin-6-yl) acrylamide] here?
The IC50 was 9.5 nM.

And the IC50 [2]?
Its IC50 is 11.4 nM.

What about the IC50 [3] of the same compound?
The IC50 was 2.3 nM.

What about the IC50 [4] of the same compound?
The IC50 was 2.8 nM.

How did the IC50 [1] turn out when `C=C(F)C(=O)Nc1cc2c(Nc3ccc(Oc4cc5nncn5cn4)c(C)c3)ncnc2cc1F` [Embodiment 125, N-(4-((4-([1,2,4]triazolo[4,3-c]pyrimidin-7-yloxy)-3-methylphenyl)amino)-7-fluoroquinolin-6-yl)-2-fluoroacryamide] was run?
Its IC50 is 13.6 nM.

And the IC50 [2]?
Its IC50 is 6.8 nM.

What about the IC50 [3] of the same compound?
Its IC50 is 14.7 nM.

What about the IC50 [4] of the same compound?
The IC50 was 3.4 nM.
